Consider 20 compounds from patent US20250129080A1, “COMPOSITIONS AND METHODS OF USING THE SAME FOR TREATMENT OF NEURODEGENERATIVE AND MITOCHONDRIAL DISEASE” (Mitokinin, Inc., priority 2021, published 2025).

Data set [1] deals with HeLa cells expressing mt-Keima and YFP-Parkin (HeLa MKYP). Kind of data set: Human mt-Keima mitophagy assay. Type of data set: cell-based. As to conditions: Homo sapiens, HeLa, 16 hrs with compound, then FCCP/oligomycin for 6 hours, FACS. How it is done: Briefly, HeLa cells expressing mt-Keima and YFP-Parkin (HeLa MKYP) were plated at 10,000 cells/well in 96 well plates along with compounds at various concentrations. Following 16 hrs of incubation, cells were treated with […] FCCP/oligomycin for 6 hours, then analyzed via FACS for the presence of mitochondria in lysosomes (as determined by an emissions spectrum shift from the pH-sensitive mt-Keima tag).

In data set [2] the test system is SKOV3 cells. In words: In vitro mitosafety (glucose/galactose) assay. Type of data set: cell-based. Particulars: highest mito-safe dose (gal/glc >0.80, IC20, SKOV3 cells, 20 hours) divided by mt-Keima EC50.
Protocol: Briefly, SKOV3 cells (ATCC HTB-77) were plated in DMEM (Corning 10-013-CV) medium containing 25 mM glucose or DMEM with no glucose (Gibco 11966-025) supplemented with 10 mMV galactose at 9,000 cells/well in 96 well plates (Corning costar 3610). 24 hrs later, compounds, in DMSO, were added at various concentrations to a final 0.1% DMSO for all wells. […] After a 15 minute incubation cellular ATP levels were read out using a Promega GloMax® DiscoverMicroplate Reader.
The ratio of relative CellTiter-Glo values from cells grown in galactose to cells grown in glucose was determined (gal/glc ratio). The gal/glc ratio vs concentration is then graphed, and non-linear regression is used to find the highest concentration of MTK compound at which gal/glc >0.80 (the “highest mito-safe dose”, or IC20).

Molecules are shown by their SMILES.

As to `FC(F)(F)c1cc2c(N[C@H]3c4ccccc4OC[C@@H]3N3CCCC3)ncnc2[nH]1` [EP-0043440, N-((3R,4S)-3-(Pyrrolidin-1-Yl)Chroman-4-Yl)-6-(Trifluoromethyl)-7H-Pyrrolo[2,3-D]Pyrimidin-4-Amine], the EC50 in data set [1] stood at 0.372 µM. For the same compound, the “Mito-Safety Index (highest safe dose/EC50)” value (“Mito-Safety Index” below) in data set [2] turned out to be 60.76.
Take `CO[C@@H]1CCN([C@H]2COc3cc(F)ccc3[C@@H]2Nc2ncnc3[nH]c(C(F)(F)F)cc23)C1` [EP-0043690, N-((3R,4S)-7-fluoro-3-((R)-3-methoxypyrrolidin-1-yl)chroman-4-yl)-6-(trifluoromethyl)-7H-pyrrolo[2,3-d]pyrimidin-4-amine]: the concentration for a half-maximal effect (EC50) in data set [1] turned out to be 0.14 µM. Further, the “Mito-Safety Index” value in data set [2] turned out to be 68.6.
`C[C@@H]1CCN([C@H]2COc3ccccc3[C@@H]2Nc2ncnc3[nH]c(C(F)(F)F)cc23)C1` [EP-0043821, N-((3R,4S)-3-((R)-3-methylpyrrolidin-1-yl)chroman-4-yl)-6-(trifluoromethyl)-7H-pyrrolo[2,3-d]pyrimidin-4-amine]: the EC50 in data set [1] worked out at 0.03 µM. Moreover, the “Mito-Safety Index” value in data set [2] is 70.0.
For the compound `C[C@@H]1CN([C@H]2COc3c(F)cccc3[C@@H]2Nc2ncnc3[nH]c(C(F)(F)F)cc23)CCO1` [EP-0043827, N-((3R,4S)-8-fluoro-3-((R)-2-methylmorpholino)chroman-4-yl)-6-(trifluoromethyl)-7H-pyrrolo[2,3-d]pyrimidin-4-amine], the EC50 in data set [1] was 0.23 µM. Also, the “Mito-Safety Index” value in data set [2] was determined as 108.7.
Take `C[C@@H]1CN([C@H]2COc3cc(F)ccc3[C@@H]2Nc2nccc3[nH]c(C(F)(F)F)cc23)CCO1` [EP-0043830, N-((3R,4S)-7-fluoro-3-((R)-2-methylmorpholino)chroman-4-yl)-2-(trifluoromethyl)-1H-pyrrolo[3,2-c]pyridin-4-amine]: the EC50 in data set [1] was determined as 0.05 µM. In data set [2], the “Mito-Safety Index” value was 118.0.
In the case of `FC(F)C1CN([C@H]2COc3ccccc3[C@@H]2Nc2ncnc3[nH]c(C(F)(F)F)cc23)C1` [EP-0043831, N-((3R,4S)-3-(3-(difluoromethyl)azetidin-1-yl)chroman-4-yl)-6-(trifluoromethyl)-7H-pyrrolo[2,3-d]pyrimidin-4-amine], the EC50 in data set [1] came out at 0.6 µM. Besides, the “Mito-Safety Index” value in data set [2] came out at 41.7.
For `Fc1ccc2c(c1)OC[C@H](N1CCOC3(CC3)C1)[C@H]2Nc1ncnc2[nH]c(C(F)(F)F)cc12` [EP-0043834, N-((3R,4S)-7-fluoro-3-(4-oxa-7-azaspiro[2.5]octan-7-yl)chroman-4-yl)-6-(trifluoromethyl)-7H-pyrrolo[2,3-d]pyrimidin-4-amine], in that order: 0.56 µM and 40.9.
For `Fc1ccc2c(c1)OC[C@H](N1CC[C@H](F)C1)[C@H]2Nc1ncnc2[nH]c(C(F)(F)F)cc12` [EP-0043839, N-((3R,4S)-7-fluoro-3-((S)-3-fluoropyrrolidin-1-yl)chroman-4-yl)-6-(trifluoromethyl)-7H-pyrrolo[2,3-d]pyrimidin-4-amine], in that order: 0.48 µM and 41.3.
With `FC(F)C1CCN([C@H]2COc3ccccc3[C@@H]2Nc2ncnc3[nH]c(C(F)(F)F)cc23)C1` (stereo partly drawn) [EP-0043845, N-((3R,4S)-3-(3-(Difluoromethyl)Pyrrolidin-1-Yl)Chroman-4-Yl)-6-(Trifluoromethyl)-7H-Pyrrolo[2,3-D]Pyrimidin-4-Amine], in data set [1], the EC50 amounted to 0.04 µM. Also, the “Mito-Safety Index” value in data set [2] is recorded as 95.0.
Turning to `C[C@@H]1CN([C@H]2COc3cc(F)ccc3[C@@H]2Nc2ncnc3c2cc(C(F)(F)F)n3C)CCO1` [EP-0043854, N-((3R,4S)-7-fluoro-3-((R)-2-methylmorpholino)chroman-4-yl)-7-methyl-6-(trifluoromethyl)-7H-pyrrolo[2,3-d]pyrimidin-4-amine], the EC50 in data set [1] was 0.25 µM. The “Mito-Safety Index” value in data set [2] is on record as 99.6.
Taken in the same sequence, the figures for `C[C@@H]1CN([C@H]2COc3cccc(F)c3[C@@H]2Nc2ncnc3[nH]c(C(F)(F)F)cc23)CCO1` [EP-0043859, N-((3R,4S)-5-fluoro-3-((R)-2-methylmorpholino)chroman-4-yl)-6-(trifluoromethyl)-7H-pyrrolo[2,3-d]pyrimidin-4-amine] were 0.07 µM and 31.4.
For `C[C@@H]1CN([C@H]2COc3ccc(F)cc3[C@@H]2Nc2ncnc3[nH]c(C(F)(F)F)cc23)CCO1` [EP-0043863, N-((3R,4S)-6-fluoro-3-((R)-2-methylmorpholino)chroman-4-yl)-6-(trifluoromethyl)-7H-pyrrolo[2,3-d]pyrimidin-4-amine], in data set [1], the EC50 is 0.17 µM. The “Mito-Safety Index” value in data set [2] amounted to 40.0.
For `FC(F)(F)O[C@H]1CCN([C@H]2COc3ccccc3[C@@H]2Nc2ncnc3[nH]c(C(F)(F)F)cc23)C1` [EP-0043865, N-((3R,4S)-3-((S)-3-(trifluoromethoxy)pyrrolidin-1-yl)chroman-4-yl)-6-(trifluoromethyl)-7H-pyrrolo[2,3-d]pyrimidin-4-amine], the EC50 in data set [1] amounted to 0.09 µM. Further, in data set [2], the “Mito-Safety Index” value came to 44.4.
Taken in the same sequence, the figures for `F[C@H]1CCN([C@H]2COc3ccccc3[C@@H]2Nc2nccc3[nH]c(C(F)(F)F)cc23)C1` [EP-0043870, N-((3R,4S)-3-((S)-3-fluoropyrrolidin-1-yl)chroman-4-yl)-2-(trifluoromethyl)-1H-pyrrolo[3,2-c]pyridin-4-amine] were 0.12 µM and 67.5.
For `FC(F)(F)c1cc2c(N[C@H]3c4ccccc4OC[C@@H]3N3CCCC3)nccc2[nH]1` [EP-0043873, N-((3R,4S)-3-(pyrrolidin-1-yl)chroman-4-yl)-2-(trifluoromethyl)-1H-pyrrolo[3,2-c]pyridin-4-amine], in that order: 0.13 µM and 71.5.
Taken in the same sequence, the figures for `FC(F)(F)c1cc2c(N[C@H]3c4ccccc4OC[C@@H]3N3CCOC4(CC4)C3)nccc2[nH]1` [EP-0043895, N-((3R,4S)-3-(4-oxa-7-azaspiro[2.5]octan-7-yl)chroman-4-yl)-2-(trifluoromethyl)-1H-pyrrolo[3,2-c]pyridin-4-amine] were 0.17 µM and 94.7.
As for `COC1CN([C@H]2COc3ccccc3[C@@H]2Nc2nccc3[nH]c(C(F)(F)F)cc23)C1` [EP-0043896, N-((3R,4S)-3-(3-methoxyazetidin-1-yl)chroman-4-yl)-2-(trifluoromethyl)-1H-pyrrolo[3,2-c]pyridin-4-amine], the EC50 in data set [1] was 0.15 µM. Besides, in data set [2], the “Mito-Safety Index” value stood at 126.7.
Consider `FC1CN([C@H]2COc3ccccc3[C@@H]2Nc2nccc3[nH]c(C(F)(F)F)cc23)C1` [EP-0043908, N-((3R,4S)-3-(3-fluoroazetidin-1-yl)chroman-4-yl)-2-(trifluoromethyl)-1H-pyrrolo[3,2-c]pyridin-4-amine], for which the EC50 in data set [1] turned out to be 0.2 µM. For the same compound, in data set [2], the “Mito-Safety Index” value worked out at 125.0.
For the compound `Fc1ccc2c(c1)OC[C@H](N1CCC3(CC3)C1)[C@H]2Nc1ncnc2[nH]c(C(F)(F)F)cc12` [EP-0043913, N-((3R,4S)-7-fluoro-3-(5-azaspiro[2.4]heptan-5-yl)chroman-4-yl)-6-(trifluoromethyl)-7H-pyrrolo[2,3-d]pyrimidin-4-amine], the EC50 in data set [1] was determined as 0.37 µM. Moreover, the “Mito-Safety Index” value in data set [2] is listed as 67.6.
Turning to `C[C@@H]1CN([C@H]2COc3cc(F)ccc3[C@@H]2Nc2ncnc3[nH]c(C4CCC4)cc23)CCO1` [EP-0044008, 6-cyclobutyl-N-((3R,4S)-7-fluoro-3-((R)-2-methylmorpholino)chroman-4-yl)-7H-pyrrolo[2,3-d]pyrimidin-4-amine], the EC50 in data set [1] turned out to be 0.01 µM. Moreover, in data set [2], the “Mito-Safety Index” value is 2500.0.
